The values below come from paper PMC6745845, “In Vitro and in Vivo antitumor activity and the mechanism of siphonodictyal B in human colon cancer cells” (Cancer Medicine, 2019).

SMILES strings stand for the structures. Read-outs that look alike come from different tables or passages of the source.

Data set [1] relates to HCT 116 cells. In words: Western blot analysis. It is filed as cell-based, human. On the procedure: HCT 116 cells were seeded in six‐well plates at 2 × 10^5 cells/well and incubated for 24 houra. […] Cells were harvested and lysed using RIPA buffer. The proteins were separated on an SDS‐PAGE and transferred to PVDF membranes. Then, the membranes were blocked for 1 hour and incubated with primary antibodies overnight at 4°C. The membranes were washed and incubated with secondary antibodies for 1 hour at room temperature. Next, the resultant bands were detected using an Odyssey Infrared Imaging system (LI‐COR, NB, USA). Antibodies against phospho‐RB (Ser780), AKT, phospho‐AKT ([…]), PARP, phospho‐p38 MAPK (Thr180/Tyr182), p38 MAPK, and Bim were purchased from Cell Signaling Technology (Danvers, MA, USA). Antibodies against β‐actin and α‐tubulin were purchased from Sigma‐Aldrich.

The subject of data set [2] is HCT 116 cells. In words: cell proliferation assay (Cell Counting Kit-8), HCT 116.
Procedure: Cells were seeded in 96‐well plates at 4000 cells/well and incubated for 24 hours, then treated with each concentration of siphonodictyal B. In experiments with SB203580 or NAC, cells were further preincubated for 24 or 1 hour before application of siphonodictyal B, respectively. Cells were incubated with Cell Counting Kit‐8 (Dojindo Molecular Technologies, Kumamoto, Japan) for 1.5 hours. Then, the absorbance of each well was measured using SpectraMaxM2e (Molecular Devices, CA, USA). The ratios of surviving cells to control cells treated with 0.1% DMSO were calculated.
The next data set addresses T1, CDK6/Cyclin D3 (Homo sapiens, UniProt Q00534).
T1 construct: purchased Carna Biosciences
Briefly: off-chip mobility shift assay, CDK6/Cyclin D3. It is filed as biochemical. On the procedure:
(§1) Cellular kinase activities were evaluated using nonradioisotopic methods such as the off‐chip mobility shift assay or IMAP (Carna Biosciences, Kobe, Japan).11 A kinase inhibition profiling panel was produced on the basis of the kinase inhibition rates. In off‐chip mobility shift assay, compound solution was prepared in assay buffer (20 mmol/L HEPES, 0.01% Triton X‐100, 2 mmol/L DTT, pH 7.5) and incubated in a 384‐well plate at room temperature. The reaction was stopped by adding Termination Buffer (QuickScout Screening Assist MSA; Carna Biosciences, Kobe, Japan). The substrate peptide and the phosphorylated peptide in the reaction solution were separated and quantified by LabChip system (Perkin Elmer, MA, USA). In IMAP assay, compound solution was prepared in assay buffer (20 mmol/L HEPES, 0.01% Tween‐20, 2 mmol/L DTT, pH 7.4) and incubated in a 384‐well black plate at room temperature. IMAP binding reagent (IMAP Screening Express kit; Molecular Devices, CA, USA) was added and incubated for 30 minutes. The kinase reaction was evaluated at the fluorescence polarization.

Another data set concerns the target T2, CDK4/Cyclin D3 (Homo sapiens, UniProt P11802).
T2 construct: purchased Carna Biosciences
In words: off-chip mobility shift assay, CDK4/Cyclin D3. It is filed as biochemical. On the procedure:
as §1

The next data set deals with HCT 116 xenograft. Briefly: xenograft mouse model, tumor growth. The data set is classed as in vivo, Balb/c nude mice. To be noted: 20 mg/kg intraperitoneally every 3 days. On the procedure:
(§2) All animal experiments were performed according to the Regulations for Animal Experiments and Related Activities at Tohoku University. Six‐week‐old female Balb/c nude mice were purchased from Charles River Laboratories (Wilmington, MA, USA). HCT 116 cells (5 × 10^6) were implanted subcutaneously into the right flanks of nude mice. After tumor formation was confirmed, mice were assigned to treatment with 20 mg/kg siphonodictyal B or vehicle (four mice per group) administered intraperitoneally every 3 days. Siphonodictyal B was dissolved in saline with 2.5% CremophorEL® and 2.5% ethanol. Tumor volumes were calculated on the basis of tumor mass using the formula length × width × width/2 (mm^3). The body weights of mice were also measured every 3 days.

For the next data set, the target named is T3, PIM2 (Homo sapiens, UniProt Q9P1W9).
T3 construct: purchased Carna Biosciences
Briefly: off-chip mobility shift assay, PIM2. The data set is classed as biochemical. On the procedure:
as §1

Another data set has as its system 313 protein kinases. In words: kinase panel assay (off-chip mobility shift or IMAP). The data set is classed as biochemical. The conditions noted are these: 313 kinases; 10 μmol/L printed for siphonodictyal B. On the procedure: as §1
The test system of the next data set is phospho-p38. In words: immunohistochemistry of xenograft tumor tissue. The data set is classed as in vivo, Balb/c nude mice. To be noted: 20 mg/kg intraperitoneally every 3 days, after all treatments. As for the experimental part: as §2
Tumor tissues were collected from mice, fixed in 10% formalin, and embedded in paraffin. Tumor sections on slides were dewaxed, rehydrated, and incubated with a specific antibody against phospho‐p38.

In data set [3] the test system is HCT 116 cells. In words: ROS detection by DCFDA staining. It is filed as cell-based, human. The conditions noted are these: 2 h. As for the experimental part: HCT 116 cells were treated with each drug for 2 hours and stained using a DCFDA/H2DCFDA—Cellular Reactive Oxygen Species Detection Assay Kit (Abcam). The measurement was performed using FC‐500.
In the next data set the test system is PIK3CA/PIK3R1. The conditions noted are these: cited from earlier work.
The target of another data set is T4, CDK7/Cyclin H/MAT1 (Homo sapiens, UniProt P50613).
T4 construct: purchased Carna Biosciences
Briefly: off-chip mobility shift assay, CDK7/Cyclin H/MAT1. It is filed as biochemical. On the procedure: as §1

Setting [4] is: read-out: PI3K (p110α/p85α) inhibitory activity IC50.
The mark [5] stands for this setting: ref Kikuchi T et al. 2016;2016(34):5659-66, read-out: IC50 PIK3CA/PIK3R1.

T4 sequence (P50613 whole entry): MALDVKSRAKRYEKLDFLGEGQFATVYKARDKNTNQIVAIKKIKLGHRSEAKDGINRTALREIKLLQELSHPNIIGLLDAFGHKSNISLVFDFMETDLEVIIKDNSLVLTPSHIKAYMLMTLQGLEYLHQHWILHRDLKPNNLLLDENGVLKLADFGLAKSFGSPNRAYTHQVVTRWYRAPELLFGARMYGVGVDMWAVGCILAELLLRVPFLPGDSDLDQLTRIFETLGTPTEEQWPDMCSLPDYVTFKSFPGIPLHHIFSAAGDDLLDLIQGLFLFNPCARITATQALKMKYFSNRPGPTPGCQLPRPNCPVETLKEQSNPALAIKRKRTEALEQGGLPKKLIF
T4 sequence (P51946 whole entry partner): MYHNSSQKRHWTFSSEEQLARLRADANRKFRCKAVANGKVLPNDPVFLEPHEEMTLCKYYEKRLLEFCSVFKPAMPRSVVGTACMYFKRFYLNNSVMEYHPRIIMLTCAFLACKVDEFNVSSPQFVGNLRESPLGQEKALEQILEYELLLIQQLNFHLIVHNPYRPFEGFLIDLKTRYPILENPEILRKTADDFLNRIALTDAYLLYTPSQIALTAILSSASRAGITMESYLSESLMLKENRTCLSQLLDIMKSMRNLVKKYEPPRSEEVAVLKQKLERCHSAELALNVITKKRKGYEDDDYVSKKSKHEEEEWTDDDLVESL
T4 sequence (P51948 whole entry partner): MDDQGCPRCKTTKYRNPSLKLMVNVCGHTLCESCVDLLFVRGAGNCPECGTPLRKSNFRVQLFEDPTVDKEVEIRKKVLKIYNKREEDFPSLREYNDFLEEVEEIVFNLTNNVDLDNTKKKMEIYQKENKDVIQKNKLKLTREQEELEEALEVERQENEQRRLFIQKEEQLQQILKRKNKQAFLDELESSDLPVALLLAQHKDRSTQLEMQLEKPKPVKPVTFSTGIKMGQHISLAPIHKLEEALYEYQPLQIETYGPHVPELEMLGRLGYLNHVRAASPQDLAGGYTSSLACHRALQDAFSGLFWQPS
T3 sequence (Q9P1W9 whole entry): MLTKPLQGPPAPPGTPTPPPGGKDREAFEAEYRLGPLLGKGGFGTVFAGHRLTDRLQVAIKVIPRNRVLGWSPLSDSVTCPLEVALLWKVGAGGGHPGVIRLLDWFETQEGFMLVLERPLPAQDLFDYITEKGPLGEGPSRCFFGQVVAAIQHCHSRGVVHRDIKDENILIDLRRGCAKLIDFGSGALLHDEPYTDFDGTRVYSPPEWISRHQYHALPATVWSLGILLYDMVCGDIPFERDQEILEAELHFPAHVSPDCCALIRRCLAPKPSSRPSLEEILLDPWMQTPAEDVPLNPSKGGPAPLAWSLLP
T2 sequence (P11802 whole entry): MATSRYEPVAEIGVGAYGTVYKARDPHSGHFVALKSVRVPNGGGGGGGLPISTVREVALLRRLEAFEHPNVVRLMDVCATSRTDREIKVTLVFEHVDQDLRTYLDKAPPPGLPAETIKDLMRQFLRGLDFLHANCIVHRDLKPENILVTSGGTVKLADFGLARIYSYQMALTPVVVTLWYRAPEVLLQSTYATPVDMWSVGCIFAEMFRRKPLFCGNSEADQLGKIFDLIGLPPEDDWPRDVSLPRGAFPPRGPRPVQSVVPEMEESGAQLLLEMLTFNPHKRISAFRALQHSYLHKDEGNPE
T2 sequence (P30281 whole entry partner): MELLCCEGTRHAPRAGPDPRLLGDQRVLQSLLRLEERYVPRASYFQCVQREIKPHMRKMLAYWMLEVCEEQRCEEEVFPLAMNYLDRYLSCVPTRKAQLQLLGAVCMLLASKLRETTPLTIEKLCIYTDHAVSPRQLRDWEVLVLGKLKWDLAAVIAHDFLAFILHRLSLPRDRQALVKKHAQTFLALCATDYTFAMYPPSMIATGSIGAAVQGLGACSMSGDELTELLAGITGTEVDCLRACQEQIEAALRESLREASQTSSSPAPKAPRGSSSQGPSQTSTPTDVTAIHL
T1 sequence (Q00534 whole entry): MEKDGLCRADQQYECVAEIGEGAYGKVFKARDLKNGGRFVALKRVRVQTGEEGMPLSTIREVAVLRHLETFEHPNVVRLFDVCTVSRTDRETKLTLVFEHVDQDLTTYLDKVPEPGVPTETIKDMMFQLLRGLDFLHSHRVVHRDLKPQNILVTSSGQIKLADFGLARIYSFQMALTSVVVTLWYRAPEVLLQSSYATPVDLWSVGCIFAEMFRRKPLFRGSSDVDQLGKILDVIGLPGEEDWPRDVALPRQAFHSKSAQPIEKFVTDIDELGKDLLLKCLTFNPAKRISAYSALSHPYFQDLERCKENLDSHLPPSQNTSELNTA
T1 sequence (P30281 whole entry partner): as the sequence (P30281 whole entry partner) above

For the molecule `CC(=O)c1c(C)c2cnc(Nc3ccc(N4CCNCC4)cn3)nc2n(C2CCCC2)c1=O` [palbociclib, Palbociclib, reference compound], the RB phosphorylation entry with HCT 116 cells [1] (10 μmol/L palbociclib, 48 h) is given as “inhibited”.
In the case of `CC1CC[C@H]2C(C)(C)CCC[C@]2(C)C1=Cc1cc(O)c(O)c(C=O)c1O` (stereo partly shown) [Siphonodictyal B], the PARP cleavage result in the data set on HCT 116 cells [1] (1.0 μmol/L, 48 h) was “induced”. Also, the p38 phosphorylation entry in the data set on HCT 116 cells [1] (1.0 μmol/L, 48 h) is reported as “clearly induced”. Besides, in the data set with HCT 116 cells [1] (0.1, 0.5 or 1 μmol/L, 48 h), the “AKT phosphorylation at Ser473” value is given as “did not inhibit”. In the data set on HCT 116 cells [1] (0.1, 0.5 or 1 μmol/L, 48 h), the “RB phosphorylation at Ser780” value is reported as “did not inhibit”. In addition, in the data set with HCT 116 cells [1] (0.5 or 1.0 μmol/L, 48 h), the “levels of Bim” value is “increased”. Moreover, the “phosphorylated p38 on addition of NAC” value in the data set on HCT 116 cells [1] (with NAC, 24 h) is “reduced”. Further, the “p38 phosphorylation on addition of SB203580” value with HCT 116 cells [1] (with SB203580, 48 h) is “reduced”. For the same molecule, the “cytotoxic effect (ratio of surviving cells)” value in the data set with HCT 116 cells [2] (HCT 116, 0.01-10 μmol/L, 24 h) is “more potent cytotoxic effects than liphagal”. In addition, the “cytotoxic effect on addition of NAC” value in the data set on HCT 116 cells [2] (HCT 116, with NAC, 24 h) is on record as “almost completely rescued”. For the same molecule, the “cytotoxic effect on addition of SB203580” value in the data set with HCT 116 cells [2] (HCT 116, with SB203580, 48 h) is listed as “partially canceled”. Also, the IC50 at CDK6/Cyclin D3 was 69.1 µM; at CDK4/Cyclin D3 it was 32.9 µM; on PIM2, 6.99 µM; in the data set with PIK3CA/PIK3R1 (setting [4]) it was 2.6 µM; with PIK3CA/PIK3R1 (setting [5]), 2.62 µM; at CDK7/Cyclin H/MAT1, 13.7 µM. Besides, the “tumor volume vs control group” value with HCT 116 xenograft was “significantly smaller”. Moreover, the “tumor weight vs control group” value with HCT 116 xenograft is “significantly smaller”. Moreover, the “inhibition of CDK4, CDK6, CDK7 and PIM-2 in kinase panel” value in the data set on 313 protein kinases is listed as “strongly inhibited”. The “phosphorylated p38 staining in tumor tissue vs control group” value in the data set on phospho-p38 is recorded as “strongly stained”. Besides, the “ROS levels vs DMSO” value with HCT 116 cells [3] is “higher”. Further, in the data set with HCT 116 cells [3] (with NAC), the “increased ROS production on addition of NAC” value is listed as “completely canceled”.
On to `CS(=O)(=O)N1CCN(Cc2cc3nc(-c4cccc5[nH]ncc45)nc(N4CCOCC4)c3s2)CC1` [GDC0941, reference compound], for which the AKT phosphorylation result in the data set with HCT 116 cells [1] (2 μmol/L GDC0941, 48 h) is “inhibited”.
For the molecule `CC1CCC2C(C)(C)CCCC2(C)c2c1oc1c(C=O)c(O)c(O)cc21` (stereo not shown) [Liphagal], the IC50 is 6.78 µM on CDK6/Cyclin D3; 19.9 µM at CDK4/Cyclin D3; 5.31 µM at PIM2; 4.1 µM with PIK3CA/PIK3R1 (setting [4]); 4.12 µM in the data set on PIK3CA/PIK3R1 (setting [5]); 1.27 µM at CDK7/Cyclin H/MAT1. Besides, the “inhibition of CDK4, CDK6, CDK7 and PIM-2 in kinase panel” value with 313 protein kinases is given as “strongly inhibited”.
